Reference: patent US6017890A, “Azole peptidomimetics as thrombin receptor antagonists” (Ortho-McNeil Pharmaceutical, Inc., priority 1999, dated 2000)
Starred links: 1 amine or outer side, 2 acyl side, 3 side chain; linkers in the order of their positions; H or OH if unused. Non-standard residues stand in square brackets, D forms with d. Residues, ends and D or L forms follow the SMILES beside them. Phe(4-F)ψ(2,4-Thz) = O=C(c1csc([C@H](Cc2ccc(F)cc2)N[*:1])n1)[*:2]; Cha = N[C@@H](CC1CCCCC1)C(=O)O

Tests used:
[1] = target: T1, gel-filtered platelets (SFLLRN-NH2 (TRAP)-stimulated aggregation) (Homo sapiens, UniProt P25116); test: In vitro inhibition of SFLLRN-NH2 (TRAP)-induced gel-filtered platelet aggregation; type: cell-based; conditions: agonist SFLLRN-NH2 (TRAP)
T1 sequence (P25116 42-425): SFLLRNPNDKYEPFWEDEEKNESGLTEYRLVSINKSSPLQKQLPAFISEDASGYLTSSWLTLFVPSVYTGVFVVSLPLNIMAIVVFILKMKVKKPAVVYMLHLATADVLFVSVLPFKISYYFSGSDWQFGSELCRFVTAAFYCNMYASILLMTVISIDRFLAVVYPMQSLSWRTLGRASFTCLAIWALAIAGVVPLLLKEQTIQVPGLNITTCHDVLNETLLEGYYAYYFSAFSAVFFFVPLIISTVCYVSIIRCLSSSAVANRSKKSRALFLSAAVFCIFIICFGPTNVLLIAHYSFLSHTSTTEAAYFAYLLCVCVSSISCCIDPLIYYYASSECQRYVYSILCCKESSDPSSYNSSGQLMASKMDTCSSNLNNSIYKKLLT
Description: The percentage of platelet aggregation is calculated as an increase in light transmission of compound-treated platelet concentrate vs. control-treated platelet concentrate. Human blood is obtained from drug free, normal donors in tubes containing 0.13 M sodium citrate. Platelet rich plasma (PRP) is collected by centrifugation of whole blood at 200×g for 10 min at 25° C. The PRP (5 mL) is gel filtered through Sepharose 2B (bed volume 50 mL), and the platelet count is adjusted to 2×10^7 platelets per sample. The following constituents are added to a siliconized cuvette: concentrated platelet filtrate and Tyrode's buffer (0.14 M NaCl, 0.0027 M KCl, 0.012 M NaHCO3, 0.76 mM Na2 HPO4, 0.0055 M glucose, 2 mg/mL BSA and 5.0 mM HEPES@pH 7.4) in an amount equal to 350 μl, 50 μl of 20 mM calcium and 50 μl of the test compound. Aggregation is monitored in a BIODATA aggregometer for the 3 min following the addition of agonist (thrombin 50 μl of 1 unit/mL).
(§1) The table contains IC50 values (μM) of the compounds in a thrombin receptor binding assay, and IC50 values (μM) against platelet aggregation stimulated by two agonists, thrombin or SFLLRN-NH2 [SEQ. ID. NO:1] (TRAP).

thrombin receptor = target: T2, thrombin receptor (Homo sapiens, UniProt P25116); test: In vitro thrombin receptor binding assay (displacement of tritiated 721-40 from CHRF membranes); conditions: tritiated 721-40 (Ser-pFPhe-Har-Leu-Har-Lys-Tyr-NH2) radioligand, read-out: Thr Receptor Binding IC50
T2 construct: CHRF membranes (Jones, Biochim. Biophys. Acta 1992, 1136, 272) are thawed from -70° C; endogenous in cells; host or cells: CHRF cell membranes
T2 sequence (P25116 22-425): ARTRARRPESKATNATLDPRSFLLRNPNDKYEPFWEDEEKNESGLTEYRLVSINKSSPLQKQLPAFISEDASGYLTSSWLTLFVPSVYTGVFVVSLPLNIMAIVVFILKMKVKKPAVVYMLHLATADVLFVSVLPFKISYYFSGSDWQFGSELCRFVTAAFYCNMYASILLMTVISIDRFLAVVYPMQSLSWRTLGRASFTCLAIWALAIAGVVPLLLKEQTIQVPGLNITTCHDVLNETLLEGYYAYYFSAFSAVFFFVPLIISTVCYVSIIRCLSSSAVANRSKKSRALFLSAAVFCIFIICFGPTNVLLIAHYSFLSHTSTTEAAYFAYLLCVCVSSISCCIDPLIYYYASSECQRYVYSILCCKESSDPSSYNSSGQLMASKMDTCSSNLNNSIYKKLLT
Description: CHRF membranes (Jones, Biochim. Biophys. Acta 1992, 1136, 272) are thawed from -70° C., centrifuged at maximum speed for 5 min, washed twice with binding buffer (50 mM HEPES containing 5 mM MgCl2 and 0.1% BSA), and re-suspended in binding buffer ([…]). 100 μl of membranes are added to the 24-Wallac plates and delivered to the Tomtech apparatus. In a typical experiment, 6 μl of samples (from a 125 μg/mL intermediary plate, 20% DMSO) and 44 μl buffer are delivered to the plates (final conc. of compounds is 3.7 μg/mL, 0.6% DMSO). Similarly, 6 μl 20% DMSO and 44 μl buffer are delivered to both column 1 (NSB) and column 12 (TB). 10 μl Ser-pFPhe-Har-Leu-Har-Lys-Tyr-NH2 [SEQ. ID. NO:2] (721-40; 500 μM in deionized water) is added to column 1. 50 μl tritiated 721-40 (specific activity 46 Ci/mmol) is added to all the wells. The plates are mixed well for 20 seconds, incubated for 30 min, and then harvested with 10 mM HEPES/138 mM NaCl using the Skatron harvester. The filters (GF/C Brandel FPXLR 296) are presoaked 3 h in 0.5% polyethylenimine in HEPES/0.1 M N-acetylglucosamine) are set in saran wrap and dried for 3 min in the microwave, and placed in sample bags (Wallac 1450-432). 4.5 mL scintillation fluid (Wallac, Betaplate Scint 1205-440) is added. The bags are sealed, placed in filter cassettes (Wallac 1450-104), and analyzed on the microbeta counter.
as §1

| Compound | IC50 [1] [µM] | IC50 (thrombin receptor) [µM] |
| --- | --- | --- |
| CNCC(=O)N[C@@H](Cc1ccc(F)cc1)c1nc(C(=O)N[C@@H](CC2CCCCC2)C(=O)N[C@@H](CCCN=C(N)N)C(=O)NCc2ccccc2)co1 [Compound 1, 2-[1(S)-Sarcosineamido-2-(4-fluorophenyl)ethyl]oxazole-4-carboxy-cyclohexylalanyl-arginine benzylamide] | 10 | 2 |
| N=C(N)NCCC[C@H](NC(=O)[C@H](CC1CCCCC1)NC(=O)c1coc([C@H](Cc2ccc(F)cc2)NC(=O)CCN)n1)C(=O)NCc1ccccc1 [Compound 2, 2-[1(S)-β-Alanineamido-2-(4-fluorophenyl)ethyl]oxazole-4-carboxy-cyclohexylalanyl-arginine benzylamide] | 7 | 8.2 |
| CNCC(=O)N[C@@H](Cc1ccc(F)cc1)c1nc(C(=O)N[C@@H](CC2CCCCC2)C(=O)N[C@@H](CCCN=C(N)N)C(=O)NCCc2ccccc2)cs1 [Compound 3, 2-[1(S)-Sarcosineamido-2-(4-fluorophenyl)ethyl]thiazole-4-carboxy-cyclohexylalanyl-arginine phenethylamide] | 0.6 | 35 |
| CC[C@H](C)[C@H](N)C(=O)N[C@@H](Cc1ccc(F)cc1)c1nc(C(=O)N[C@@H](CC2CCCCC2)C(=O)N[C@@H](CCCN=C(N)N)C(=O)N[C@@H](Cc2ccccc2)C(N)=O)cs1 [Compound 5, 2-[1(S)-Isoleucineamido-2-(4-fluorophenyl)ethyl]thiazole-4-carboxy-cyclohexylalanyl-arginyl-phenylalanineamide] (H-I[Phe(4-F)ψ(2,4-Thz)][Cha]RF-NH2) | 9 | 3.5 |
| CNCC(=O)N[C@@H](Cc1ccc(F)cc1)c1nc(C(=O)N[C@@H](CCCCN)C(=O)N[C@@H](CCCNC(=N)N)C(=O)NCCc2ccccc2)cs1 [Compound 6, 2-[1(S)-Sarcosineamido-2-(4-fluorophenyl)ethyl]thiazole-4-carboxy-lysyl-arginine phenethylamide] | 4 | 15.5 |
| CNCC(=O)N[C@@H](Cc1ccc(F)cc1)c1nc(C(=O)N[C@@H](CC2CCCCC2)C(=O)N[C@@H](CCCNC(=N)N)C(=O)NCc2ccccc2)c(C)o1 [Compound 7, 2-[1(S)-Sarcosineamido-2-(4-fluorophenyl)ethyl]-5-methyloxazole-4-carboxy-cyclohexylalanyl-arginine benzylamide] | 22 | 7 |
| Cc1oc([C@H](Cc2ccc(F)cc2)NC(=O)[C@@H](N)Cc2cn(Cc3ccccc3)cn2)nc1C(=O)N[C@@H](CC1CCCCC1)C(=O)N[C@@H](CCCNC(=N)N)C(=O)NCc1ccccc1 [Compound 8, 2-[1(S)-N(tau)-Benzyl-histidineamido-2-(4-fluorophenyl)ethyl]-5-methyloxazole-4-carboxy-cyclohexylalanyl-arginine benzylamide] | 5 | 30 |
| CC(=O)N[C@@H](Cc1ccc(F)cc1)c1nc(C(=O)N[C@@H](CC2CCCCC2)C(=O)N[C@@H](CCCNC(=N)N)C(=O)NCc2ccccc2)c(C)o1 [Compound 9, 2-[1(S)-Acetamido-2-(4-fluorophenyl)ethyl]-5-methyloxazole-4-carboxy-cyclohexylalanyl-arginine benzylamide] | 11 | 31 |
| Cc1oc([C@H](Cc2ccc(F)cc2)N(C)C)nc1C(=O)N[C@@H](CC1CCCCC1)C(=O)N[C@@H](CCCNC(=N)N)C(=O)NCc1ccccc1 [Compound 10, 2-[1(S)-N,N-Dimethyl-2-(4-fluorophenyl)ethyl]-5-methyloxazole-4-carboxy-cyclohexylalanyl-arginine benzylamide] | 17 |  |
